# Test results reported in patent publication US20220348590A1, “CYCLOOXYGENASE-2 INHIBITORS AND USES THEREOF” (The Board Institute, Inc., priority 2019, published 2022).
# Where two headings read alike, the source gives them in different places.
# Legend:
# [1] = Mouse Microsome Stability; type: in vitro ADME; details: mouse microsomes
# [2] = molecular target: T1, human recombinant COX2 (hCOX2) (UniProt P35354); experiment: LCMS-based COX2 enzymatic inhibition assay (PGE2 quantification); type: biochemical; parameters: COX2 2 minutes pge2/pge2d4 area ratio Avg; other: 2 minutes; readout pge2/pge2d4 area ratio; average; COX2 2 minutes pge2/pge2d4 area ratio Avg; LLE; average LLE; COX2 2 minutes pge2 area (counts) Avg; readout pge2 area (counts); other: 2 min; "ovine COX2 (oCOX2), human recombinant COX2 (hCOX2)"; details: for COX2 2 minutes pge2/pge2d4 area ratio Avg. LLE / COX2 2 minutes pge2 area (counts) Avg. LLE / COX2 10 minutes pge2 area (counts) Avg. LLE: average LLE; for IC50: average
# T1 sequence (P35354 1-604): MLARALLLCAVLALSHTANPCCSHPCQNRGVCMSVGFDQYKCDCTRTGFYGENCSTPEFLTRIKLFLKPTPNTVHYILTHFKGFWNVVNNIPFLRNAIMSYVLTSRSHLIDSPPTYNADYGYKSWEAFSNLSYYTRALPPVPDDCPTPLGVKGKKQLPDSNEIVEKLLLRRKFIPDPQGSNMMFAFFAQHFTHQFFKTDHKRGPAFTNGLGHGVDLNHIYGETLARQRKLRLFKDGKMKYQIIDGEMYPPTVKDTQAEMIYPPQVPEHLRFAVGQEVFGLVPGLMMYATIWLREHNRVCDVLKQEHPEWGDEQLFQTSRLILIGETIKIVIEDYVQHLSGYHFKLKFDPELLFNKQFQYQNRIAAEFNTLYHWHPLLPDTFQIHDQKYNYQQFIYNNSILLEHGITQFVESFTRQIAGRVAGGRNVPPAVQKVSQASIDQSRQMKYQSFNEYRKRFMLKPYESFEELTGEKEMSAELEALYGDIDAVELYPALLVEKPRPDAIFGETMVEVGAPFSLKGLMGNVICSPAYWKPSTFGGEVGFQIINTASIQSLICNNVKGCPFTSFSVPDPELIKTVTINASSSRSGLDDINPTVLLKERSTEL
# How it was run: (§1)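 PGE2 formed from arachidonic acid (final 5 μM, 2 min) was measured by LC-MS-MS against DMSO controls. Enzyme (oCOX-1 0.1 μg or hCOX2 0.2 μg) with hematin/epinephrine cofactors at pH 8.0 was given 10 min at 37 °C with compound first. Twelve-point curves run three times gave IC50.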
# [3] = Human Microsome Stability; type: in vitro ADME; details: human microsomes
# ovine COX-1 (oCOX-1) = molecular target: T2, ovine COX-1 (oCOX-1) (Ovis aries, UniProt P05979); experiment: LCMS-based COX-1 enzymatic inhibition assay (PGE2 quantification); type: biochemical; details: 10 minutes
# T2 construct: purchased Cayman Chemicals (Ann Arbor, Mich.)
# T2 sequence (P05979 25-600): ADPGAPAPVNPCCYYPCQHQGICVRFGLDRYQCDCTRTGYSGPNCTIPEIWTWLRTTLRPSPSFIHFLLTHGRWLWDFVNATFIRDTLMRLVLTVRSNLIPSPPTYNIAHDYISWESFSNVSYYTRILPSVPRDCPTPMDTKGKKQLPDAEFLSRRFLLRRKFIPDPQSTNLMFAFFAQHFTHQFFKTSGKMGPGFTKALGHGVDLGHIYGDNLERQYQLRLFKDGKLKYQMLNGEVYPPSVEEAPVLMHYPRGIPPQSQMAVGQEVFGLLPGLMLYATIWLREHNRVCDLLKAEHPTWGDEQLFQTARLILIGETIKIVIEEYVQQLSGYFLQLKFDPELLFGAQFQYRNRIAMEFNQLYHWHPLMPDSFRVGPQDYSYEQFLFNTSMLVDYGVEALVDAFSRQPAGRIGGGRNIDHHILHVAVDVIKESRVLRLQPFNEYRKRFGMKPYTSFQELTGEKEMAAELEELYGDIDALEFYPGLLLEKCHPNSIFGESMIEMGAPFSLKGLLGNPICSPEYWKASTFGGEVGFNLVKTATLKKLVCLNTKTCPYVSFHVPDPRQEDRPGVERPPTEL
# How it was run: as §1
# [4] = molecular target: T1, human recombinant COX2 (hCOX2); experiment: LCMS-based COX2 enzymatic inhibition assay (PGE2 quantification); type: biochemical; parameters: improvement in potency; other: COX2 potency relative to MC1 / earlier ligand; comparator not always stated; other: vs MC1 (MC-1); details: COX2 potency relative to MC1 / earlier ligand; comparator not always stated
# Procedure: (§2) We have adapted a previously reported cyclooxygenase enzymatic assay utilizing LCMS quantification of PGE2 as the product of COX-1 and COX2 catalyzed conversion of arachidonic acid to evaluate the binding properties of newly synthesized ligands [Cao, 2011]. These optimized and miniaturized (384-well plates) LCMS-based COX-1 and COX2 enzymatic assays enabled us to quickly evaluate newly synthesized ligands for COX2 binding affinity and selectivity vs COX-1. Using a shorter ligand-enzyme incubation time in the LCMS assay (2 minutes vs 10 minutes) also permitted us to prioritize ligands with faster binding kinetics. Considering the relatively slow on-rate kinetics of known coxibs, due to their 3-step binding mechanism [Marnett, 2009], we believe that optimizing this critical parameter will be key to the successful development of a COX2 PET tracer. Using these enzymatic assays, we have evaluated>200 newly synthesized ligands against COX2 and >20 ligands against COX-1. Another critical property necessary for a good PET radiotracer is to have low non-specific binding (NSB) to increase the free fraction and maximize the signal to noise ratio. This property can be evaluated using in-vitro protein binding assays, and we have now evaluated>50 newly synthesized ligands in mouse, rat and human plasma protein binding (PPB) assays as well as >15 ligands in a mouse brain protein binding (BPB) assay.
# Ovine COX-1 (oCOX-1), ovine COX2 (oCOX2), human recombinant COX2 (hCOX2), arachidonic acid, PGE2, d4-PGD2, and […] (labeled with deuterium atoms at positions 3 and 4) were purchased from Cayman Chemicals (Ann Arbor, Mich.). The cofactors (−)epinephrine and hematin, and the COX inhibitors indomethacin, resveratrol and diclofenac were purchased from Sigma-Aldrich (St. Louis, Mo.). Celecoxib was purchased from 3B PharmaChem International (Wuhan, China). All organic solvents were HPLC grade or better and were purchased from Thermo Fisher (Hanover Park, Ill.). Formic acid was purchased from EMD Chemicals (San Diego, Calif.). Purified water was prepared by using a Millipore Milli-Q purification system (Millipore, Billerica, Mass.). All other chemicals and solvents were ACS reagent grade, unless stated otherwise.
# In an Eppendorf tube, 146 μL of 100 mM Tris.HCl (pH 8.0) buffer, 2 μL of 100 μM hematin (co-factor) and 10 μL of 40 mM L-epinephrine (co-factor) were mixed at room temperature. […]
# The concentration of PGE2 in each sample was measured using LC-MS-MS, and the percent of COX inhibition by each test solution was determined by comparing the amount of PGE2 produced in the experiment with that produced in the negative control incubation. The formation of PGD2 was measured for quality control purposes, since the levels of PGD2 should be proportional to those of PGE2. […]
# [5] = in-vitro protein binding: free fraction / fraction unbound, matrix and species not given; type: in vitro ADME
# Procedure: as §2
# [6] = 2 minutes, readout pge2/pge2d4 area ratio
# [7] = 2 minutes, readout pge2/pge2d4 area ratio, read-out: COX2 2 minutes pge2/pge2d4 area ratio Avg. IC50
# [8] = 2 minutes, readout pge2 area (counts)
# [9] = 2 minutes, readout pge2 area (counts), read-out: COX2 2 minutes pge2 area (counts) Avg. IC50
# [10] = 10 minutes, readout pge2 area (counts)
# [11] = 10 minutes, readout pge2 area (counts), read-out: COX2 10 minutes pge2 area (counts) Avg. IC50
# [12] = pge2 area (counts), head of this section not shown, inferred
Structure (SMILES),Mouse Microsome Stability % Remaining Avg [1] [%],"COX2 2 minutes pge2/pge2d4 area ratio Avg. LLE [2, 6]","IC50 [2, 7] [µM]","COX2 2 minutes pge2 area (counts) Avg. LLE [2, 8]","IC50 [2, 9] [µM]","COX2 10 minutes pge2 area (counts) Avg. LLE [2, 10]","IC50 [2, 11] [µM]",Human Microsome Stability % Remaining Avg [3] [%],"COX1 10 minutes pge2/pge2d4 area ratio Avg. LLE (ovine COX-1 (oCOX-1); pge2/pge2d4 area ratio, head of this section not shown, inferred)",COX1 10 minutes pge2 area (counts) Avg. LLE (ovine COX-1 (oCOX-1); [12]),"IC50 (ovine COX-1 (oCOX-1); pge2 area (counts), head of this section not shown, inferred, read-out: COX1 10 minutes pge2 area (counts) Avg. IC50) [µM]","IC50 (ovine COX-1 (oCOX-1); readout pge2/pge2d4 area ratio, average, read-out: COX1 10 minutes pge2/pge2d4 area ratio Avg. IC50) [µM]",improvement in potency [4] [fold],fraction unbound [5]
CS(=O)(=O)c1ccc(-c2cncc(NCc3cccs3)n2)cn1 [Compound 141],10,5.497,0.213,5.579,0.176,6.4815,0.0223,55,–,–,–,–,–,–
COc1cc(OCc2cccs2)nc(-c2ccc(S(C)(=O)=O)cc2)n1 [Compound 331],–,–,–,–,–,–,–,–,–,–,–,–,10,–

# Continued, values first:
Mouse Microsome Stability % Remaining Avg [1] [%],"COX2 2 minutes pge2/pge2d4 area ratio Avg. LLE [2, 6]","IC50 [2, 7] [µM]","COX2 2 minutes pge2 area (counts) Avg. LLE [2, 8]","IC50 [2, 9] [µM]","COX2 10 minutes pge2 area (counts) Avg. LLE [2, 10]","IC50 [2, 11] [µM]",Human Microsome Stability % Remaining Avg [3] [%],"COX1 10 minutes pge2/pge2d4 area ratio Avg. LLE (ovine COX-1 (oCOX-1); pge2/pge2d4 area ratio, head of this section not shown, inferred)",COX1 10 minutes pge2 area (counts) Avg. LLE (ovine COX-1 (oCOX-1); [12]),"IC50 (ovine COX-1 (oCOX-1); pge2 area (counts), head of this section not shown, inferred, read-out: COX1 10 minutes pge2 area (counts) Avg. IC50) [µM]","IC50 (ovine COX-1 (oCOX-1); readout pge2/pge2d4 area ratio, average, read-out: COX1 10 minutes pge2/pge2d4 area ratio Avg. IC50) [µM]",improvement in potency [4] [fold],fraction unbound [5],Structure (SMILES)
30.5,4.85,0.0742,4.897,0.085,5.83,0.00794,54.9,2.186,2.128,39,34.2,–,–,CS(=O)(=O)c1ccc(-c2cncc(NCc3ccc(F)cc3)n2)cc1 [Compound 96]
–,4.506,0.108,4.564,0.0999,–,–,–,–,–,–,–,~6,0.025,COc1ncc(-c2ccc(S(C)(=O)=O)cc2)nc1NCc1cccs1 [Compound 116]
1.6,5.371,0.118,5.44,0.124,6.397,0.0115,32.4,–,2.724,–,–,–,–,CS(=O)(=O)c1ccc(-c2cncc(NCc3ccco3)n2)cc1 [Compound 120]
